Measured values as given in PubChem BioAssay AID330 (DTP/NCI, 2004).
Inconclusive results and toxic doses are left out. How the source made its calls: active means survival T/C of 150% or more; inactive means T/C below 125% in these data.

System: P388 leukemia ip, CD2F1 mice, survival T/C
Test: NCI In Vivo Anticancer Drug Screen. Data for tumor model P388 Leukemia (intraperitoneal) in CD2F1 (CDF1) mice
Conditions: endpoint: median survival time, higher = longer survival
Summary of the method: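 Mice carrying the transplanted tumor received test compound or vehicle. Survival was recorded in each group, and the value is the treated-group measurement divided by that of the vehicle-treated control group.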

Measured: T/C

Cc1cc(N2C(=O)CSC2=S)ccc1Cl
inactive: dose: 50.0 mg/kg/injection, schedule: Q01DX009 (ip), vehicle: suspension in saline 105 % of control | dose: 100.0 mg/kg/injection, schedule: Q01DX009 (ip), vehicle: suspension in saline 99 % of control | dose: 200.0 mg/kg/injection, schedule: Q01DX009 (ip), vehicle: suspension in saline 106 % of control

C[C@]12CC[C@H]3[C@@H](CC[C@]4(O)C[C@@H](O)CC[C@]34CO)[C@@]1(O)CC[C@@H]2C1=CC(=O)OC1
inactive: dose: 25.0 mg/kg/injection, schedule: Q04DX003 (ip), vehicle: suspension in saline 97 % of control | dose: 50.0 mg/kg/injection, schedule: Q04DX003 (ip), vehicle: suspension in saline 98 % of control | dose: 100.0 mg/kg/injection, schedule: Q04DX003 (ip), vehicle: suspension in saline 97 % of control | dose: 200.0 mg/kg/injection, schedule: Q04DX003 (ip), vehicle: suspension in saline 100 % of control

CCCCN(CCCC)CC(O)c1ccc(OC)c2ccccc12 (stereo not given)
inactive: dose: 50.0 mg/kg/injection, schedule: Q01DX005 (ip), vehicle: saline with Tween-80 102 % of control | dose: 100.0 mg/kg/injection, schedule: Q01DX005 (ip), vehicle: saline with Tween-80 107 % of control | dose: 200.0 mg/kg/injection, schedule: Q01DX005 (ip), vehicle: saline with Tween-80 98 % of control
